We go through 1 compound from patent EP1153612A1, “ANTICANCER AGENT POTENTIATORS” (Tsuruo, Takashi, priority 1999, dated 2000).

In one assay the test system is topoisomerase IIα. The assay is described as follows: Amount of expression of topoisomerase IIα in whole cell extract by western blotting. In kind it is cell-based, human. To be noted: glucose starvation condition 14 hours; PSI, MG115, MG132 5 µM; lactacystin 10 µM; E64, ZLLal 50 µM; FIG. 5(a)-(c). An excerpt:
Topoisomerase II inhibiting anticancer drug stabilizes a complex (cleavable complex) consisting of the DNA and topoisomerase IIα occurring in a catalytic reaction process of topoisomerase IIα to cause DNA damage. Therefore, cell-killing effect of the topoisomerase II-inhibiting anticancer drug depends on the amount of intracellular expression of topoisomerase IIα essential for formation of the cleavable complex. Then, the amount of expression of topoisomerase IIα in the cultured cancer cell under the glucose starvation and hypoxia environment that are found in the solid cancer and the effect of the proteasome inhibiting agent to the amount of expression were examined.
The culture condition of cells is same as that described in Example 1 including the M phase synchronous culture method and culture under the glucose starvation condition. Culture under hypoxia condition, that is found in the solid cancer, similar to glucose starvation was carried out using the culture medium (that prepared by adding 5% FBS to RPMI1640 culture medium) under the ordinary condition in a Gaspack 100 anaerobic system (Becton Dickinson made). Culture under the glucose starvation condition and hypoxia condition was carried out for 14 hours .
With the purpose to prepare a whole cell extract solution, cells culture under the above described condition were washed with an ice-cooled PBS twice and then, cells were removed from the culture dish by using a cell scraper (Sumitomo Bakelite made) for collection. Cells collected were precipitated by centrifugation and then, dissolved in an SDS sample buffer to collect as the extract solution from all cells. For reference, the composition of the SDS sample buffer was 10% v/v, glycerol, 5% 2-mercaptoethanol, 2% SDS (sodium lauryl sulfate), and 62.5 mM tris-hydrochloric acid (pH 6.8).
The amount of topoisomerase IIα in the extract solution from all cells was measured by the western blotting method. The extract solution from all cells containing a total protein quantity of 30 µg was put on an SDS polyacrylamide gel (4-20 Multigel: Daiichi Pure Chemicals K.K. made) and subjected to electrophoresis in an electrophoresis buffer (25 mM tris, 192 mM glycine, and 0.1% SDS) in a 40 mA constant current for 1 hour. Subsequently, blotting was carried out in 4°C blotting buffer (25 mM tris, 192 mM glycine, and 20% methanol) in a 50 V constant voltage for 12 hours to transfer a protein separated in the SDS polyacrylamide gel to a nitrocellulose membrane. This nitrocellulose membrane was soaked in a blocking buffer (0.1% Tween 20, 4% skim milk-added PBS) for 1 hour to carry out blocking. The nitrocellulose membrane blocked was soaked in a solution, that was prepared by adding anti-topoisomerase IIα antibody (Cambridge Research Biochemicals Corp. made) of the final concentration 1 µg/ml as the primary antibody to the blocking buffer solution, for 1 hour. The nitrocellulose membrane was washed with the blocking buffer three times (5 minutes once), and then, soaked in the solution, in which a 1/1000 volume of an antimouse antibody (Amersham Pharmacia Biotech made) labeled with horse radish peroxidase as a secondary antibody had been added to the blocking buffer, for 1 hour. The nitrocellulose membrane was washed with the blocking buffer three times (5 minutes once), and then, washed with the PBS, to which 0.1% Tween 20 was added, three times (5 minutes once). The nitrocellulose membrane after completion of antibody reaction and washing was treated with the ECL reagent (Amersham Pharmacia Biotech made) after a handling manual and a topoisomerase IIα-specific signal was detected on an X-OMAT™AR film (Kodakmade). For reference, steps after blotting was carried out in a room temperature. […]
The cell culture condition for both M phase-synchronized culture method and culture under the glucose starvation condition was as described in Example 1. […]
Background: Immunoblotting shows a protein as a band on a membrane.

For assay [1], the system named is human colon adenocarcinoma cell HT-29. The assay can be described thus: Sensitivity of cells to anticancer drug by colony formation method (M phase-synchronized cells, with or without proteasome inhibiting agent). The assay is classed as cell-based. The settings on record: for change of cell-killing effect of camptothecin: lactacystin 10 µM 13 hours, camptothecin 4 hours, FIG. 14. As for the experimental part:
In the glucose starvation environment found in the solid cancer, the effect of combined use of the proteasome inhibitor in a human colon adenocarcinoma cell HT-29 with the anticancer drug targeting topoisomerase II was tested.
Concerning culture media, for a culture condition in a normal state, RPMI 1640 medium (Nissui Pharmaceutical Co.-made) to which a 5% FBS (fetal bovine serum) was added and for the culture condition in the glucose starvation state symbolically found in the solid cancer, RPMI 1640 medium (Lifetech Oriental-made), lacking glucose, in which the 5% FBS was added were used, respectively. Culture was carried out using a CO2 incubator (Tabai Espec-made) under conditions of 5% CO2/95% air and humidity 100%.
In order to test sensitivity to the anticancer drug, the cell cycle synchronization culture methodwas employed. Nocodazol (Sigma made) was used to synchronize the cell cycle, cells in a logarithmic proliferation phase were treated with 40 ng/ml Nocodazol for 9 hours, and cells accumulated in cell division phase (Mpahse) were collected by gentle pipetting. M phase-synchronized cells collected through these steps were washed with PBS (phosphate buffered saline) followed by inoculation of 1×10^5 cells per well of 12 well-culture plate.
M phase-synchronized cells were cultured under the normal condition and the glucose starvation condition to conduct treatments with the proteasome inhibiting agent and the anticancer drug as follows. For cells under the glucose starvation condition, the culture medium, to which the proteasome inhibiting agent and the protease inhibiting agent not inhibiting proteasome were added as the control group, and the culture medium, to which no inhibiting agent has been added, was used. For cells under the normal condition, the culture medium, to which each inhibiting agent was not added, was used. After inoculation of cells, culture was carried out for 13 hours in each culture medium. […]
Sensitivity of cells to the anticancer drug was measured using the colony formation method. As described above, cells treated with the proteasome inhibiting agent and the anticancer drug were washed with PBS followed by soaking in trypsin (Lifetech Oriental made) solution and removed from a culture dish to suspend in an ordinary culture medium. These cells were inoculated again in 500 to 5000 cells for a 10 cm culture dish and cultured for 10 to 12 days to form a colony. The colony formed was fixed by 10% formaldehyde solution and stainedwith 0.01% crystal violet (Wako Pure Chemicals made) solution. Number of colony was counted and a Cell survival rate was calculated assuming that the number of colonies untreated with the anticancer drug is 1.
For reference, the proteasome inhibiting agent and the protease inhibiting agent not inhibiting proteasome used as described above were as follows. • (1) Proteasome inhibiting agent • . […] MG115 (carbobenzoxy-L-Leucyl-L-Leucyl-L-Norvalinal): final concentration 2.5 µM (Peptide Institute Inc. made) • . MG132 (carbobenzoxy-L-Leucyl-L-Leucyl-Leucinal) : final concentration 2.5 µM (Peptide Institute Inc. made) • . Lactacystin, final concentration 10 µM (Kindly supplied from The Kitasato Institute made) • (2) Protease inhibiting agent not inhibiting proteasome • . E64, final concentration 25 µM (Peptide Institute Inc. made) • . ZLLal (carbobenzoxy-L-Leucyl-L-Leucinal): final concentration 25 µM (Peptide Institute Inc. made)
The cell culture condition for both M phase-synchronized culture method and culture under the glucose starvation condition was as described in Example 1. M phase-synchronized cells were cultured in the culture medium, to which lactacystin of the final concentration 10 µM was added, or the culture medium, to which this was not added, as the proteasome inhibiting agent under the ordinary condition and the glucose starvation condition, respectively, for 13 hours. […]

As for `CC(=O)N[C@@H](CSC(=O)[C@]1([C@@H](O)C(C)C)NC(=O)[C@H](C)[C@@H]1O)C(=O)O` [lactacystin], the “expressed amount of topoisomerase IIα” value with topoisomerase IIα was “similarly inhibits drop of expression of topoisomerase IIα”. The “change of cell-killing effect of bleomycin” value in assay [1] (glucose starvation condition, lactacystin 7.5 µM 13 hours, bleomycin 4 hours) is listed as “enhances the cell-killing effect”. The “change of cell-killing effect of mitomycin C” value in assay [1] (glucose starvation condition, lactacystin 7.5 µM 13 hours, mitomycin C 4 hours) was “enhances the cell-killing effect of mitomycin C”. The figures for the “change of cell-killing effect of camptothecin” value in assay [1] (glucose starvation condition) and in assay [1] (ordinary culture condition) were “enhances the cell-killing effect of camptothecin” and “the cell-killing effect thereof is enhanced”, respectively. Further, the “effect on etoposide sensitivity” value in assay [1] (glucose starvation condition, lactacystin 10 µM, FIG. 3) is listed as “enhances sensitivity to etoposide”. Further, the “change of cell-killing effect of cisplatin” value in assay [1] (ordinary culture condition and glucose starvation condition, lactacystin 7.5 µM 13 hours, cisplatin 4 hours, FIG. 18) was “enhances the cell-killing effect of cisplatin”.
